Experimental data from patent publication US4122034A, “Antimicrobial compositions” (Schering Corporation, priority 1975, dated 1978).

What was measured:
Enterococcus = assay: In vitro antibacterial activity, dilution in Mueller Hinton Agar (Table I); type: cell-based
Protocol: (§1) All the tests were carried out and (when necessary) scored under standard conditions. "MIC" means "minimum inhibitory concentration."
(§2) In vitro Antibacterial Activity of 2-aminoalkyl-3-phenyl-
(§3) indoles of the formula I. Dilution in Mueller Hinton Agar pH 7.4

Escherichia coli = assay: as above; type: cell-based
Protocol: as §1, §2, §3

Klebsiella = assay: as above; type: cell-based
Protocol: as §1, §2, §3

Proteus mirabilis = assay: as above; type: cell-based; settings: Mueller Hinton Agar pH 7.4
Protocol: as §1, §2, §3

Proteus morganii = assay: as above; type: cell-based; settings: Morganella morganii; strain Valz; Mueller Hinton Agar pH 7.4
Protocol: as §1, §2, §3

Proteus rettgeri = assay: as above; type: cell-based; settings: Providencia rettgeri; 'Proteus rettgeri mirabilis' [sic]; Mueller Hinton Agar pH 7.4
Protocol: as §1, §2, §3

Proteus vulgaris = assay: as above; type: cell-based; settings: strain Napol, Mueller Hinton Agar pH 7.4
Protocol: as §1, §2, §3

Pseudomonas acruginosa = assay: as above; type: cell-based
Protocol: as §1, §2, §3

Salmonella = assay: as above; type: cell-based
Protocol: as §1, §2, §3

Staphylococcus aureus = assay: as above; type: cell-based; settings: Mueller Hinton Agar pH 7.4
Protocol: as §1, §2, §3

Streptococcus pyogenes = assay: as above; type: cell-based
Protocol: as §1, §2, §3

Candida albicans = assay: In vitro Anti-Candida activity, dilutions in Sabouraud's Dextrose Agar (Table III); type: cell-based; settings: 48 h
Protocol: as §1
In vitro Anti-Candida Activity of 2-aminoalkyl-3-phenyl-
indoles of the formula I. Dilutions in Sabouraud's Dextrose
MIC (mcg/ml) after 48 hours

Epidermophyton floccosum = assay: In vitro antifungal activity, dilutions in Sabouraud's Dextrose Broth (Table IV); type: cell-based; settings: after 96 hours
Protocol: as §1
(§4) In vitro Antifungal Activity of 2-amioalkyl-3-phenylindoles
(§5) of the formula I against Dermetophytes and Aspergillus.
(§6) Dilutions in Sabouraud's Dextrose Broth.

Microsporum distortum = assay: as above; type: cell-based; settings: after 96 hours
Protocol: as §1, §4, §5, §6

Microsporum nanum = assay: as above; type: cell-based; settings: Nannizzia nana; after 96 hours
Protocol: as §1, §4, §5, §6

Trichophyton ascoides = assay: as above; type: cell-based; settings: after 96 hours
Protocol: as §1, §4, §5, §6

Trichophyton discoides = assay: as above; type: cell-based; settings: after 96 hours
Protocol: as §1, §4, §5, §6

Trichophyton ferrugineum = assay: as above; type: cell-based; settings: Microsporum ferrugineum; after 96 hours
Protocol: as §1, §4, §5, §6

Trichophyton gallinae = assay: as above; type: cell-based; settings: after 96 hours
Protocol: as §1, §4, §5, §6

[1] = tested on: Trichophyton mentagrophytes; assay: as above; type: cell-based; settings: 96 h
Protocol: as §1, §4, §5, §6

Trichophyton rubrum = assay: as above; type: cell-based; settings: 96 h
Protocol: as §1, §4, §5, §6

Trichophyton soudenense = assay: as above; type: cell-based; settings: after 96 hours
Protocol: as §1, §4, §5, §6

Trichophyton tonsurans = assay: as above; type: cell-based; settings: after 96 hours
Protocol: as §1, §4, §5, §6

Tricoderm sp. = assay: as above; type: cell-based; settings: after 96 hours
Protocol: as §1, §4, §5, §6

T. mentagrophytes = assay: Effect against topical T. mentagrophytes infections in guinea pigs (Table VI); type: in vivo; parameters: Average Sum of lesion scores, Days 1-5 / Average Sum of lesion scores, Days 1-10: scale not given here; settings: for Average Sum of lesion scores, Days 1-5: untreated controls 14.8; for Average Sum of lesion scores, Days 1-10: untreated controls 38.2
Protocol: as §1
Effect of some 2-aminoalkyl-3-phenylindoles of the formula II
against topical T. mentagrophytes infections in guinea pigs.

NCc1[nH]c2ccc(Cl)cc2c1-c1ccc(Cl)cc1Cl [E]
6.6 days: Average No. of Days to become negative, Cultures (T. mentagrophytes; concentration 4%)
11.6: Average Sum of lesion scores, Days 1-5 (T. mentagrophytes; concentration 4%)
9.2 days: Average No. of Days to become negative, Lesion (T. mentagrophytes; concentration 4%)
0.8 µg/mL: MIC (Staphylococcus aureus; pH 7.4, strain Zeigler) | MIC (Streptococcus pyogenes; pH 7.4, strain Cruz, Mueller Hinton Agar pH 7.4)
34.2: Average Sum of lesion scores, Days 1-10 (T. mentagrophytes; concentration 1%)
15.2: Average Sum of lesion scores, Days 1-10 (T. mentagrophytes; concentration 4%)
> 22 days: Average No. of Days to become negative, Cultures (T. mentagrophytes; concentration 1%) | Average No. of Days to become negative, Lesion (T. mentagrophytes; concentration 1%)
17.5 µg/mL: MIC (Proteus mirabilis; pH 7.4, strain Peras) | MIC (Proteus morganii) | MIC (Proteus rettgeri) | MIC (Pseudomonas acruginosa; pH 7.4, strain 138, Mueller Hinton Agar pH 7.4) | MIC (Pseudomonas acruginosa; pH 7.4, strain 762, Mueller Hinton Agar pH 7.4) | MIC (Pseudomonas acruginosa; pH 7.4, strain Trav. 1, Mueller Hinton Agar pH 7.4) | MIC (Candida albicans; strain 4, after 48 hours) | MIC (Candida albicans; strain 5, after 48 hours) | MIC (Candida albicans; strain Newcomb, after 48 hours) | MIC (Trichophyton gallinae) | MIC ([1]; strain B, after 96 hours) | MIC ([1]; strain C, after 96 hours)
3 µg/mL: MIC (Enterococcus; pH 7.4, strain 373, Mueller Hinton Agar pH 7.4) | MIC (Enterococcus; pH 7.4, strain 0928/72, Mueller Hinton Agar pH 7.4) | MIC (Escherichia coli; pH 7.4, strain 777, Mueller Hinton Agar pH 7.4) | MIC (Escherichia coli; pH 7.4, strain 1574-1, Mueller Hinton Agar pH 7.4) | MIC (Escherichia coli; pH 7.4, strain 4195, Mueller Hinton Agar pH 7.4) | MIC (Escherichia coli; pH 7.4, strain 10536, Mueller Hinton Agar pH 7.4) | MIC (Escherichia coli; pH 7.4, strain JR66, Mueller Hinton Agar pH 7.4) | MIC (Klebsiella; pH 7.4, strain 3020, Mueller Hinton Agar pH 7.4) | MIC (Klebsiella; pH 7.4, strain AD22, Mueller Hinton Agar pH 7.4) | MIC (Klebsiella; pH 7.4, strain G3694, Mueller Hinton Agar pH 7.4) | MIC (Proteus mirabilis; pH 7.4, strain Hard) | MIC (Proteus vulgaris) | MIC (Salmonella; TYPHI, pH 7.4, B typhi, Mueller Hinton Agar pH 7.4) | MIC (Salmonella; pH 7.4, C1 Oao, Mueller Hinton Agar pH 7.4) | MIC (Salmonella; pH 7.4, C2 Cuban, Mueller Hinton Agar pH 7.4) | MIC (Salmonella; pH 7.4, C2 Napc, Mueller Hinton Agar pH 7.4) | MIC (Salmonella; pH 7.4, Salmonella ent. 1, Mueller Hinton Agar pH 7.4) | MIC (Staphylococcus aureus; 209P, pH 7.4, strain 209P) | MIC (Staphylococcus aureus; pH 7.4, strain 59N) | MIC (Staphylococcus aureus; pH 7.4, strain Gray) | MIC (Staphylococcus aureus; pH 7.4, strain Wood) | MIC (Streptococcus pyogenes; pH 7.4, strain 27, Mueller Hinton Agar pH 7.4) | MIC (Streptococcus pyogenes; pH 7.4, strain C, Mueller Hinton Agar pH 7.4) | MIC (Epidermophyton floccosum) | MIC (Microsporum distortum) | MIC (Microsporum nanum) | MIC ([1]; strain A, after 96 hours) | MIC ([1]; strain Young, after 96 hours) | MIC (Trichophyton rubrum; strain 3, after 96 hours) | MIC (Trichophyton rubrum; strain 360, after 96 hours) | MIC (Trichophyton rubrum; strain Blehl, after 96 hours) | MIC (Trichophyton rubrum; strain Haggerty, after 96 hours) | MIC (Tricoderm sp.)
37.5 µg/mL: MIC (Candida albicans; strain 1, after 48 hours) | MIC (Candida albicans; strain 2, after 48 hours) | MIC (Candida albicans; strain 3, after 48 hours) | MIC (Candida albicans; strain 6, after 48 hours) | MIC (Candida albicans; strain 8, after 48 hours) | MIC (Candida albicans; strain 9, after 48 hours) | MIC (Candida albicans; strain 29, after 48 hours) | MIC (Candida albicans; strain Atkisson, after 48 hours) | MIC (Candida albicans; strain Bertrand, after 48 hours) | MIC (Candida albicans; strain Bevan, after 48 hours) | MIC (Candida albicans; strain Blunden, after 48 hours) | MIC (Candida albicans; strain Bognay, after 48 hours) | MIC (Candida albicans; strain Boyer, after 48 hours) | MIC (Candida albicans; strain Burke, after 48 hours) | MIC (Candida albicans; strain Burnside, after 48 hours) | MIC (Candida albicans; strain Collins, after 48 hours) | MIC (Candida albicans; strain Fix, after 48 hours) | MIC (Candida albicans; strain Frazier, after 48 hours) | MIC (Candida albicans; strain Fulcher, after 48 hours) | MIC (Candida albicans; strain Gay, after 48 hours) | MIC (Candida albicans; strain Hons, after 48 hours) | MIC (Candida albicans; strain Johnson, after 48 hours) | MIC (Candida albicans; strain Kenndy 2, after 48 hours) | MIC (Candida albicans; strain Kennedy 1, after 48 hours) | MIC (Candida albicans; strain Lehtman, after 48 hours) | MIC (Candida albicans; strain Lusk, after 48 hours) | MIC (Candida albicans; strain Merkel, after 48 hours) | MIC (Candida albicans; strain Sherod, after 48 hours) | MIC (Candida albicans; strain Shurelli, after 48 hours) | MIC (Candida albicans; strain Sparks, after 48 hours) | MIC (Candida albicans; strain Tyner, after 48 hours)
7.5 µg/mL: MIC (Klebsiella; pH 7.4, strain 121, Mueller Hinton Agar pH 7.4) | MIC (Klebsiella; pH 7.4, strain AD17, Mueller Hinton Agar pH 7.4) | MIC (Pseudomonas acruginosa; pH 7.4, strain 130, Mueller Hinton Agar pH 7.4) | MIC (Pseudomonas acruginosa; pH 7.4, strain 8709, Mueller Hinton Agar pH 7.4) | MIC (Trichophyton ascoides) | MIC (Trichophyton discoides) | MIC (Trichophyton ferrugineum) | MIC ([1]; strain H377, after 96 hours) | MIC (Trichophyton soudenense) | MIC (Trichophyton tonsurans)
12.6: Average Sum of lesion scores, Days 1-5 (T. mentagrophytes; concentration 1%)
